Laboratory results as given in the NIST ThermoML archive (doi:10.1016/j.fluid.2015.03.025).

Experiment: xn = mol fraction of the nth substance listed
Settings: 101 kPa, Liquid; for mass density: Buoyancy - hydrostatic balance; for electrical conductivity: Alternating current cell with electrodes; for viscosity: Capillary tube (Ostwald / Ubbelohde) method

C[N+](C)(C)CCO.[Cl-] [choline chloride] + OCCO
x1 = 0.5
Settings | electrical conductivity [S/m] | mass density [kg/m3] | viscosity [mPa·s]
301.55 K | – | 1048.21 | –
303.04 K | 0.838 | – | –
307.95 K | – | 1046.1 | –
308.15 K | 0.917 | – | –
312.74 K | 0.986 | – | –
313.15 K | – | 1044.28 | 25.3
317.51 K | 1.054 | – | –
317.55 K | – | 1042.81 | –
318.15 K | – | – | 21.7
322.85 K | – | 1041.05 | –
323.15 K | 1.123 | – | 18.3
327.35 K | – | 1039.36 | –
328.15 K | 1.186 | – | 16.3
333.15 K | 1.264 | – | 14.4
333.25 K | – | 1036.72 | –
338.15 K | – | 1034.68 | 12.4
343.15 K | 1.414 | – | 10.5
347.85 K | – | 1030.78 | –
348.15 K | – | – | 9.6
353.15 K | 1.519 | 1028.98 | 8.7

O=C(O)C(=O)O [ethanedioic acid] + C[N+](C)(C)CCO.[Cl-]
x2 = 0.5
Settings | electrical conductivity [S/m] | mass density [kg/m3] | viscosity [mPa·s]
300.15 K | – | 1160.6 | –
303.05 K | 0.483 | – | –
303.15 K | – | – | 119.4
304.15 K | – | 1158.66 | –
308.15 K | 0.56 | – | 101.1
312.75 K | 0.638 | 1153.06 | –
313.15 K | – | – | 82.7
317.55 K | 0.727 | – | –
318.15 K | – | 1150.57 | 60.2
323.15 K | 0.808 | 1148.23 | 43.7
328.15 K | 0.886 | – | 37
328.65 K | – | 1146.23 | –
333.15 K | 0.981 | – | 31.9
334.15 K | – | 1142.66 | –
343.15 K | 1.144 | 1137.16 | 20.1
348.15 K | – | – | 16.8
348.65 K | – | 1135.11 | –
353.15 K | 1.288 | 1133.19 | 14.3

OCCN(CCO)CCO [triethanolamine] + C[N+](C)(C)CCO.[Cl-]
x2 = 0.5
Settings | electrical conductivity [S/m] | mass density [kg/m3] | viscosity [mPa·s]
312.75 K | 0.013 | – | –
313.15 K | – | 1044.2 | 83
317.55 K | 0.008 | – | –
318.15 K | – | – | 64.8
318.25 K | – | 1042.56 | –
323.15 K | 0.008 | – | 44.9
323.25 K | – | 1040.96 | –
328.15 K | 0.013 | – | 39.9
328.35 K | – | 1039.12 | –
333.15 K | 0.007 | – | 33
333.25 K | – | 1037.41 | –
338.15 K | 0.017 | – | 27.2
338.45 K | – | 1035.68 | –
343.15 K | 0.018 | – | 21.3
343.25 K | – | 1034.09 | –
348.15 K | 0.006 | – | 18.8
348.55 K | – | 1032.59 | –
350.45 K | – | 1032.09 | –
353.15 K | 0.008 | 1031.28 | –
